{
  "source": "ChEMBL document CHEMBL5584307",
  "about": "“Discovery of a Potent and Orally Bioavailable Xanthine Oxidase/Urate Transporter 1 Dual Inhibitor as a Potential Treatment for Hyperuricemia and Gout” (J Med Chem, 2024)",
  "key": {"[1]": {"test": "Volume of distribution at steady state in Cynomolgous monkey at 5 mg/kg, po or 1 mg/kg, iv measured upto 24 hrs by LC-MS/MS analysis", "format": "ADME, organism-based, Macaca fascicularis", "conditions": "cynomolgus monkey, in vivo"}, "[2]": {"test": "Stability in monkey liver microsomes assessed as half life at 1 uM measured upto 60 mins in presence of NADPH by LC-MS/MS analysis", "format": "ADME, Macaca mulatta, Microsome", "conditions": "rhesus monkey"}, "[3]": {"test": "Clearance in overnight-fasted Sprague-Dawley rat at 1 mg/kg, iv measured upto 24 hrs by LC-MS/MS analysis", "format": "ADME, organism-based", "conditions": "in vivo"}, "Cytochrome P450 1A2 [4]": {"target": "T1, Cytochrome P450 1A2 (Homo sapiens, UniProt P05177)", "T1 sequence (P05177 whole entry)": "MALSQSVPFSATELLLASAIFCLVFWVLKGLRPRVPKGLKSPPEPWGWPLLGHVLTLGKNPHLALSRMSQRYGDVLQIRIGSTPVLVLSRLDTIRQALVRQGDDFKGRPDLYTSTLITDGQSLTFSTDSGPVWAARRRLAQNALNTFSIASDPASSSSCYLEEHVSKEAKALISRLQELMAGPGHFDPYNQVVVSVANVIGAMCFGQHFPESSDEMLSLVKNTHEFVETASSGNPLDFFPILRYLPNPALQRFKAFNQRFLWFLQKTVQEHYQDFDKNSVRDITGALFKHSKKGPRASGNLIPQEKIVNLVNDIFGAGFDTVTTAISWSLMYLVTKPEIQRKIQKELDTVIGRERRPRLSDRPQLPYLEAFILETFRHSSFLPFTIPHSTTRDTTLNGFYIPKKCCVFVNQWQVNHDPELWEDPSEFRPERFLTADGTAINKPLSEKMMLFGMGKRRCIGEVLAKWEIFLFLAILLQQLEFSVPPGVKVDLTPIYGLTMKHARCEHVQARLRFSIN", "test": "Induction of CYP1A2 in human hepatocytes at 50 uM incubated for 48 hrs with media containing compound renewal every 24 hrs followed by substrate addition measured after 30 mins by LC-MS/MS analysis", "format": "ADME, cell-based, Hepatocyte", "conditions": "48.5 h"}, "[5]": {"test": "AUC (last) in Cynomolgous monkey at 5 mg/kg, po measured upto 24 hrs by LC-MS/MS analysis", "format": "ADME, organism-based, Macaca fascicularis", "conditions": "cynomolgus monkey, in vivo"}, "Sapajus apella [6]": {"test_system": "Sapajus apella", "test": "Urate lowering effect in Tufted capuchin monkey assessed as urine xanthine level at 30 mg/kg/day, po qd for 3 days consecutively", "format": "functional", "conditions": "time 3 day"}, "[7]": {"target": "Voltage-gated inwardly rectifying potassium channel KCNH2 (Homo sapiens, UniProt Q12809)", "sequence (Q12809 whole entry)": "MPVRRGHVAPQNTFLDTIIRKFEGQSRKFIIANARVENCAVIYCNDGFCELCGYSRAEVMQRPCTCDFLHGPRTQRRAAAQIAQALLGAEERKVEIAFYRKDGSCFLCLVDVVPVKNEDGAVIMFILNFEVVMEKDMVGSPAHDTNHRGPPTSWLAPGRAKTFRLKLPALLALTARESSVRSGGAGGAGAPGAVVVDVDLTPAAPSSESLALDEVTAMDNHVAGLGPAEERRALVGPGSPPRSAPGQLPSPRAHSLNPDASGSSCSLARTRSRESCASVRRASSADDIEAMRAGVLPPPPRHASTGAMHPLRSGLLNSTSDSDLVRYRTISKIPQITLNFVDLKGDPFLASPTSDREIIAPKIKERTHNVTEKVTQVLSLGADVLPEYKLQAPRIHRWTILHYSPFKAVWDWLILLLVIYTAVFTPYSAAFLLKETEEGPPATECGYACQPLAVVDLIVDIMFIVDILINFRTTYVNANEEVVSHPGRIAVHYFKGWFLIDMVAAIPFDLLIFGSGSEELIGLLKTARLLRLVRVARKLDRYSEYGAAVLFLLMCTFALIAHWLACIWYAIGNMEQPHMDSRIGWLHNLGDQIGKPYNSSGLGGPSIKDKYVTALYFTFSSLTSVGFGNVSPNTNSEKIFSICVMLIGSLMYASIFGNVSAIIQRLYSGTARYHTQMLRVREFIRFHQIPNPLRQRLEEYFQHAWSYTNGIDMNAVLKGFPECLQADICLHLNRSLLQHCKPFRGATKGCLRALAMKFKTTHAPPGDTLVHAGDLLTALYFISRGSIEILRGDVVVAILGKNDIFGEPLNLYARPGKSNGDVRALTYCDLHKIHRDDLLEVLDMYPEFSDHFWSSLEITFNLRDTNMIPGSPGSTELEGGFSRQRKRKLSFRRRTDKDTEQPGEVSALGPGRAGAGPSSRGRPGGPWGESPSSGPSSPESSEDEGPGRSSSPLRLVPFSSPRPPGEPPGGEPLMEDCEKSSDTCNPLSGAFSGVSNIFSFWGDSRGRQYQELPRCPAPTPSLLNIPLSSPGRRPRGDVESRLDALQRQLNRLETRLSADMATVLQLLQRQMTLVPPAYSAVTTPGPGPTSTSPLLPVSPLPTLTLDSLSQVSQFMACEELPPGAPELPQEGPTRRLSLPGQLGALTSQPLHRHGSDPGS", "test": "Inhibition of hERG transfected in HEK293 cells by patch clamp assay", "format": "toxicity, cell-based"}, "[8]": {"test": "Cmax in Tufted capuchin monkey at 30 mg/kg, po measured for 24 hrs by LC-MS/MS analysis", "format": "ADME, organism-based", "conditions": "sapajus apella, in vivo"}, "Cytochrome P450 1A2 [9]": {"target": "T1, Cytochrome P450 1A2", "test": "Inhibition of CYP1A2 in human liver microsomes in presence of NADPH by LC-MS/MS analysis", "format": "ADME, Microsome"}, "[10]": {"test": "Cmax in overnight-fasted Sprague-Dawley rat at 5 mg/kg, po measured upto 24 hrs by LC-MS/MS analysis", "format": "ADME, organism-based", "conditions": "in vivo"}, "[11]": {"test": "Toxicity in cynomolgous monkey assessed as increase in salivation at 90 to 200 mg/kg/day for 28 days consecutively", "format": "organism-based, Macaca fascicularis", "conditions": "cynomolgus monkey, in vivo, 672 h; dose 90-200 mg/kg/day, time 28 day"}, "[12]": {"test": "Toxicity in rat assessed as acute inflammation in pylorus at 120 mg/kg/day for 28 days by H and E staining based analysis", "format": "organism-based", "conditions": "in vivo, 672 h, time 28 day"}, "Cytochrome P450 2B6": {"target": "T2, Cytochrome P450 2B6 (Homo sapiens, UniProt P20813)", "T2 sequence (P20813 whole entry)": "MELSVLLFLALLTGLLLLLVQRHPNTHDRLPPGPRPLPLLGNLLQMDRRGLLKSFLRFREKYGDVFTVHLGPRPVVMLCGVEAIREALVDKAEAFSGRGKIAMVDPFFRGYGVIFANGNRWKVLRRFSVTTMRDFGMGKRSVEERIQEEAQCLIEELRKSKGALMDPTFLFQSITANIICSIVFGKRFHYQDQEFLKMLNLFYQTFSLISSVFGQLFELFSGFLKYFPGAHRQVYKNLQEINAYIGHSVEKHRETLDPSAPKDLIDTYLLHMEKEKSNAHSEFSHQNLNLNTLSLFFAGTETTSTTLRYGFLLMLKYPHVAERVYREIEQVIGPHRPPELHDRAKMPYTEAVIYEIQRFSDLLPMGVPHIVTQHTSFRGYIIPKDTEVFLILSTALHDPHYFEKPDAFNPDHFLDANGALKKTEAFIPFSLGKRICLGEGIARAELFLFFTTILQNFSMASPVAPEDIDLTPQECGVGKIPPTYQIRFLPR", "test": "Induction of CYP2B6 in human hepatocytes at 50 uM incubated for 48 hrs with media containing compound renewal every 24 hrs followed by substrate addition measured after 30 mins by LC-MS/MS analysis", "format": "ADME, cell-based, Hepatocyte", "conditions": "48.5 h"}, "[13]": {"test": "AUC (last) in Tufted capuchin monkey at 10 mg/kg, po measured for 24 hrs by LC-MS/MS analysis", "format": "ADME, organism-based", "conditions": "sapajus apella, in vivo"}, "[14]": {"test": "AUC (last) in overnight-fasted Sprague-Dawley rat at 5 mg/kg, po measured upto 24 hrs by LC-MS/MS analysis", "format": "ADME, organism-based", "conditions": "in vivo"}, "[15]": {"test": "Cmax in Tufted capuchin monkey at 100 mg/kg, po measured for 24 hrs by LC-MS/MS analysis", "format": "ADME, organism-based", "conditions": "sapajus apella, in vivo"}, "[16]": {"test": "Volume of distribution at steady state in Beagle dog at 5 mg/kg, po or 1 mg/kg, iv measured upto 24 hrs by LC-MS/MS analysis", "format": "ADME, organism-based, Canis lupus familiaris", "conditions": "in vivo"}, "[17]": {"test": "Stability in human liver microsomes assessed as half life at 1 uM measured upto 60 mins in presence of NADPH by LC-MS/MS analysis", "format": "ADME, Microsome"}, "[18]": {"test": "Toxicity in cynomolgous monkey assessed as decrease in body weight at 90 to 200 mg/kg/day for 28 days consecutively", "format": "organism-based, Macaca fascicularis", "conditions": "cynomolgus monkey, in vivo, 672 h; dose 90-200 mg/kg/day, time 28 day"}, "Sapajus apella [19]": {"test_system": "Sapajus apella", "test": "Urate lowering effect in Tufted capuchin monkey assessed as serum xanthine level at 30 mg/kg/day, po qd for 3 days consecutively", "format": "functional", "conditions": "time 3 day"}, "[20]": {"test": "Stability in rat liver microsomes assessed as half life at 1 uM measured upto 60 mins in presence of NADPH by LC-MS/MS analysis", "format": "ADME, Microsome"}, "[21]": {"test": "Stability in dog liver microsomes assessed as half life at 1 uM measured upto 60 mins in presence of NADPH by LC-MS/MS analysis", "format": "ADME, Canis lupus familiaris, Microsome"}, "[22]": {"test": "Toxicity in rat assessed as decrease in body weight at 120 mg/kg/day for 28 days", "format": "organism-based", "conditions": "in vivo, 672 h, time 28 day"}, "[23]": {"test": "Toxicity in cynomolgous monkey assessed as decrease in food consumption at 90 to 200 mg/kg/day for 28 days consecutively", "format": "organism-based, Macaca fascicularis", "conditions": "cynomolgus monkey, in vivo, 672 h; dose 90-200 mg/kg/day, time 28 day"}, "[24]": {"test": "Half life in Tufted capuchin monkey at 30 mg/kg, po measured for 24 hrs by LC-MS/MS analysis", "format": "ADME, organism-based", "conditions": "sapajus apella, in vivo"}, "[25]": {"test": "Volume of distribution at steady state in overnight-fasted Sprague-Dawley rat at 5 mg/kg, po or 1 mg/kg, iv measured upto 24 hrs by LC-MS/MS analysis", "format": "ADME, organism-based", "conditions": "in vivo"}, "[26]": {"test": "AUC (last) in Beagle dog at 1 mg/kg, iv measured upto 24 hrs by LC-MS/MS analysis", "format": "ADME, organism-based, Canis lupus familiaris", "conditions": "in vivo"}, "[27]": {"test": "Toxicity in rat assessed as single-cellular necrosis of mucosal epithelium in colon at 120 mg/kg/day for 28 days by H and E staining based analysis", "format": "organism-based", "conditions": "in vivo, 672 h, time 28 day"}, "[28]": {"test": "AUC (last) in Tufted capuchin monkey at 100 mg/kg, po measured for 24 hrs by LC-MS/MS analysis", "format": "ADME, organism-based", "conditions": "sapajus apella, in vivo"}},
  "note": "pIC50: −log10 of the molar value.",
  "data": [
    {"smiles": "N#Cc1cc(-c2ccc(C(=O)O)c(O)c2)c2oc(F)cc2c1", "values": [
      {"measurement": "Vdss", "setting": "[1]", "result": 0.297, "unit": "L/kg"},
      {"measurement": "half-life at 1 µM", "setting": "[2]", "result": 2.87, "unit": "h"},
      {"measurement": "clearance", "setting": "[3]", "result": 1.51, "unit": "mL/min/kg"},
      {"measurement": "Activity", "setting": "Cytochrome P450 1A2 [4]", "result": "< 20", "unit": "%"},
      {"measurement": "AUC(0-t) at 24 h", "setting": "[5]", "result": 34200, "unit": "ng·h/mL"},
      {"measurement": "Activity", "setting": "Sapajus apella [6]", "result": 29.26, "unit": "µg·h/mL"},
      {"measurement": "pIC50", "setting": "[7]", "result": "< 4.28"},
      {"measurement": "Cmax", "setting": "[8]", "result": 16700, "unit": "ng/mL"},
      {"measurement": "pIC50", "setting": "Cytochrome P450 1A2 [9]", "result": "< 4.30"},
      {"measurement": "Cmax", "setting": "[10]", "result": 17200, "unit": "ng/mL"},
      {"measurement": "Activity", "setting": "[11]", "result": "Toxic"},
      {"measurement": "Activity", "setting": "[12]", "result": "Toxic"},
      {"measurement": "Activity", "setting": "Cytochrome P450 2B6", "result": "< 20", "unit": "%"},
      {"measurement": "AUC(0-t) at 24 h", "setting": "[13]", "result": 4340, "unit": "ng·h/mL"},
      {"measurement": "AUC(0-t) at 24 h", "setting": "[14]", "result": 81700, "unit": "ng·h/mL"},
      {"measurement": "Cmax", "setting": "[15]", "result": 145000, "unit": "ng/mL"},
      {"measurement": "Vdss", "setting": "[16]", "result": 1.71, "unit": "L/kg"},
      {"measurement": "half-life at 1 µM", "setting": "[17]", "result": 3.75, "unit": "h"},
      {"measurement": "Activity", "setting": "[18]", "result": "Toxic"},
      {"measurement": "Activity", "setting": "Sapajus apella [19]", "result": 6.19, "unit": "µg·h/mL"},
      {"measurement": "half-life at 1 µM", "setting": "[20]", "result": 3.38, "unit": "h"},
      {"measurement": "half-life at 1 µM", "setting": "[21]", "result": 21.1, "unit": "h"},
      {"measurement": "Activity", "setting": "[22]", "result": "Toxic"},
      {"measurement": "Activity", "setting": "[23]", "result": "Toxic"},
      {"measurement": "half-life", "setting": "[24]", "result": 3.1, "unit": "h"},
      {"measurement": "Vdss", "setting": "[25]", "result": 0.31, "unit": "L/kg"},
      {"measurement": "AUC(0-t) at 24 h", "setting": "[26]", "result": 3130, "unit": "ng·h/mL"},
      {"measurement": "Activity", "setting": "[27]", "result": "Toxic"},
      {"measurement": "AUC(0-t) at 24 h", "setting": "[28]", "result": 302000, "unit": "ng·h/mL"}
    ]}
  ]
}
